In article PMC11241344, “TriplEP-CPP: Algorithm for Predicting the Properties of Peptide Sequences” (International Journal of Molecular Sciences, 2024):
Peptide text beside a SMILES is read from it.

Columns and labels:
[1] = tested on: McCoy mouse fibroblast cells; assay type: cell-based; conditions: MTT test, peptide C=0,1 mM (100 µM), 24 h incubation at 37 °C, 5% CO2, absorbance 570/690 nm, mean ± standard deviation (n = 5)
Protocol: (§1) Since the peptides predicted as CPPs are intended to be used as safe intracellular delivery systems, it is necessary to evaluate the degree of their toxicity to mammalian cells. For this purpose, the compounds investigated were added to human HaCaT keratinocyte cells and McCoy mouse fibroblast cells at a final concentration of 100 μM.
(§2) One of the most important criteria in the search for new penetrating peptides is to ensure the safety of their further use and to assess potential problems and risks. […] Therefore, we incubated human HaCaT keratinocyte and McCoy mouse fibroblast cells with our synthesized compounds at a final concentration of 100 μM for 24 h at 37 °C. […] The use of a fluorescent tag makes it possible to observe the penetration of the peptides as well as their distribution and localization within the cells. For this purpose, the synthesized compounds were conjugated with the fluorescent tag NBD-F and incubated with cells at a final concentration of […] for 4 h at 37 °C.
(§3) McCoy mouse fibroblast cell line (ATCC® CRL-1696™) was grown in a CO2 incubator at 37 °C, 5% CO2 in DMEM medium supplemented with 10% FBS and gentamicin (10 mkg/mL). Human immortalized keratinocyte line HaCaT cells (ATCC® PCS-200-011™) were grown in CO2-incubator at 37 °C, 5% CO2 in RPMI medium supplemented with 10% FBS and gentamicin (10 mkg/mL).
(§4) The cytotoxicity of the peptides was assessed using the MTT-test (3-(4,5-dimethylthiazol-2-yl)2,5-diphenyltetrazolium bromide) according to a standard protocol. McCoy, HaCaT cells were seeded in 96-well plates to a density of 5 × 10^3 cells and 3 × 10^3 cells in each well and incubated at 37 °C, 5% CO2 for 24 h. After 24 h incubation, the cells were washed with Hanks’ balanced salt solution (HBSS). The test peptides were tested at a final concentration of 100 µM in five replicates. Fresh culture medium without added peptides was used as a negative control. […] After adding 100 µL of the test compound to the cells, the samples were incubated at 37 °C, 5% CO2 for 24 h. Next, 10 µL of MTT working solution was added to each well, followed by incubating the cells for 4 h and adding 100 µL of solubilizing buffer to dissolve the formazan crystals. The amount of MTT was measured spectrophotometrically at 570 nm and 690 nm using a Multiskan Ascent microplate photometer (ThermoScientific, Waltham, MA, USA).
(§5) Results were processed using Microsoft Office Excel. During the evaluation of cell viability in the first step, the difference between the values obtained at 570 nm and 690 nm was found for each group of measurements. Then, dose-dependent curves were plotted for each cell line. […] The next step was to recalculate the values as a percentage of the positive control and obtain the mean values and standard deviation for each peptide.

[2] = tested on: human HaCaT keratinocyte cells; assay type: cell-based; conditions: MTT test, peptide C=0,1 mM (100 µM), 24 h incubation at 37 °C, 5% CO2, absorbance 570/690 nm, mean ± standard deviation (n = 5)
Protocol: as §1, §2, §3, §4, §5

Compound | Percentage of Viable Cells, McCoy [1] [%] | Percentage of Viable Cells, HaCaT [2] [%]
CC(C)C[C@H](NC(=O)[C@H](CCC(N)=O)NC(=O)[C@H](Cc1c[nH]c2ccccc12)NC(=O)[C@H](Cc1c[nH]cn1)NC(=O)[C@H](CCCCN)NC(=O)[C@H](CCCCN)NC(=O)[C@H](CCC(N)=O)NC(=O)[C@H](CCCNC(=N)N)NC(=O)[C@H](Cc1ccc(O)cc1)NC(=O)[C@H](Cc1c[nH]cn1)NC(=O)[C@H](Cc1ccccc1)NC(=O)[C@H](Cc1ccc(O)cc1)NC(=O)[C@H](CCCNC(=N)N)NC(=O)[C@@H](N)CS)C(=O)O [CpHI4] (H-CRYFHYRQKKHWQL-OH) | 95.5 ± 3.2 | 95.3 ± 3.5
C[C@H](NC(=O)[C@H](C)NC(=O)[C@H](CCCCN)NC(=O)[C@@H](N)CO)C(=O)N[C@@H](CC(=O)O)C(=O)N[C@@H](CCC(=O)O)C(=O)N[C@@H](CO)C(=O)N[C@@H](CCC(=O)O)C(=O)N[C@@H](CCCNC(=N)N)C(=O)O [CpHM5] (H-SKAADESER-OH) | 96.3 ± 3.4 | 93.8 ± 2.4
CC[C@H](C)[C@H](NC(=O)[C@H](C)N)C(=O)N[C@@H](CCCNC(=N)N)C(=O)N[C@@H](CC(N)=O)C(=O)N[C@@H](CC(=O)O)C(=O)N[C@@H](CCC(=O)O)C(=O)N[C@@H](CCC(=O)O)C(=O)N[C@@H](CC(C)C)C(=O)N[C@@H](CC(N)=O)C(=O)N[C@@H](CCCCN)C(=O)O [CpHM6] (H-AIRNDEELNK-OH) | 95.3 ± 3.4 | 92.2 ± 2.9
CSCC[C@H](NC(=O)[C@H](Cc1c[nH]cn1)NC(=O)[C@H](Cc1c[nH]c2ccccc12)NC(=O)[C@@H](NC(=O)[C@@H](N)CCCCN)[C@@H](C)O)C(=O)N[C@H](C(=O)N[C@@H](Cc1ccc(O)cc1)C(=O)N1CCC[C@H]1C(=O)NCC(=O)NCC(=O)N[C@@H](Cc1ccc(O)cc1)C(=O)N[C@@H](CC(=O)O)C(=O)N[C@@H](Cc1c[nH]cn1)C(=O)N[C@H](C(=O)N[C@@H](CCCNC(=N)N)C(=O)NCC(=O)O)[C@@H](C)O)C(C)C [CpOH10] (H-KTWHMVYPGGYDHTRG-OH) | 94.4 ± 3.1 | 94.6 ± 3.3
CC[C@H](C)[C@H](NC(=O)[C@H](CCC(N)=O)NC(=O)[C@H](Cc1c[nH]c2ccccc12)NC(=O)[C@H](CCC(N)=O)NC(=O)[C@H](Cc1ccc(O)cc1)NC(=O)[C@@H](N)CO)C(=O)N[C@@H](Cc1ccccc1)C(=O)N[C@@H](Cc1ccc(O)cc1)C(=O)N[C@@H](CCCNC(=N)N)C(=O)N[C@@H](CO)C(=O)N[C@@H](CC(C)C)C(=O)N[C@@H](CC(=O)O)C(=O)NCC(=O)N[C@@H](CO)C(=O)NCC(=O)N[C@@H](C)C(=O)N[C@@H](CCCCN)C(=O)N[C@@H](CCC(=O)O)C(=O)O [CpRE12] (H-SYQWQIFYRSLDGSGAKE-OH) | 87.6 ± 4.6 | 84.4 ± 4.0
CC(C)[C@H](NC(=O)[C@@H](N)[C@@H](C)O)C(=O)N[C@@H](C)C(=O)N[C@@H](CC(N)=O)C(=O)N[C@@H](Cc1ccccc1)C(=O)N[C@@H](CCCCN)C(=O)N[C@H](C(=O)N[C@@H](CC(N)=O)C(=O)N[C@@H](CO)C(=O)N[C@@H](C)C(=O)N[C@@H](C)C(=O)N1CCC[C@H]1C(=O)N1CCC[C@H]1C(=O)N[C@@H](C)C(=O)N[C@@H](C)C(=O)N[C@@H](CCC(=O)O)C(=O)N1CCC[C@H]1C(=O)N1CCC[C@H]1C(=O)N[C@@H](CCCNC(=N)N)C(=O)O)[C@@H](C)O [CpRE13] (H-TVANFKTNSAAPPAAEPPR-OH) | 89.7 ± 3.3 | 90.6 ± 3.6
CC[C@H](C)[C@H](NC(=O)CN)C(=O)NCC(=O)N[C@@H](C)C(=O)N[C@H](C(=O)N[C@@H](CC(C)C)C(=O)N[C@@H](CCCCN)C(=O)N[C@H](C(=O)N[C@@H](CC(C)C)C(=O)N[C@H](C(=O)N[C@H](C(=O)NCC(=O)N[C@@H](CC(C)C)C(=O)N1CCC[C@H]1C(=O)N[C@@H](C)C(=O)N[C@@H](CC(C)C)C(=O)N[C@H](C(=O)N[C@@H](CO)C(=O)N[C@@H](Cc1c[nH]c2ccccc12)C(=O)N[C@H](C(=O)N[C@@H](CCCCN)C(=O)N[C@@H](CCCNC(=N)N)C(=O)N[C@@H](CCCCN)C(=O)N[C@@H](CCCNC(=N)N)C(=O)N[C@@H](CCC(N)=O)C(=O)N[C@@H](CCC(N)=O)C(N)=O)[C@@H](C)CC)[C@@H](C)CC)[C@@H](C)O)[C@@H](C)O)C(C)C)C(C)C [melittin, reference compound] | 0.0 | 0.1 ± 0.1
